The values below come from patent US11407771B2 (priority 2018, dated 2022).

Where only a bound is given, the exact number is not on record here.

T1 sequence (O15264 whole entry): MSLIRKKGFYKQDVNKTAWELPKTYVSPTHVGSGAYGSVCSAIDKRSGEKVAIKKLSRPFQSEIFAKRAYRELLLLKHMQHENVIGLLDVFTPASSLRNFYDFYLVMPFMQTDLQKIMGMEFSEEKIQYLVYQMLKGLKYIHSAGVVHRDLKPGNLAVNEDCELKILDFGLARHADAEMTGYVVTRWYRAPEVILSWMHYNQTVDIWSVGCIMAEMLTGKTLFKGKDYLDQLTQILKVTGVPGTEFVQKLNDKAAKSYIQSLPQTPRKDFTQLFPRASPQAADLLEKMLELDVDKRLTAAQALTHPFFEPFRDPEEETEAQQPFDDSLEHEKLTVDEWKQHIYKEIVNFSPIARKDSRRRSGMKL

The first experiment has as its target T1, MAPK13 (Homo sapiens (Human), UniProt O15264).
Assay: not given
The note with it: read-out: MAPK13 inhibition.
As to `CCOC(=O)Nc1cc(CCc2cnc(NC(=O)Nc3cc(C(C)(C)C)n[nH]3)s2)ccn1` [Compound 354, [4-(2-{2-[3-(5-tert-Butyl-2H-pyrazol-3-yl)-ureido]-thiazol-5-yl}-ethyl)-pyridin-2-yl]-carbamic acid ethyl ester], the IC50 is less than 250 nM.
In the case of `CC(=O)Nc1cc(Oc2ccc(NC(=O)Nc3cc(C4CC4)ccc3F)c(F)c2)ccn1` [Compound 397, N-(4-{4-[3-(5-Cyclopropyl-2-fluoro-pheny)-ureido]-3-fluoro-phenoxy}-pyridin-2-yl)-actamde], the IC50 is less than 250 nM.
On the same count and under the same terms, under `CC(=O)Nc1cc(CCc2cnc(NC(=O)Nc3cc(C4CC4)ccc3F)s2)ccn1` [Compound 398, N-[4-(2-{2-[3-(5-Cyclopropyl-2-fluoro-phenyl)-ureido]-thiazol-5-yl}-ethyl)-pyridin-2-yl]-acetamide] stands less than 250 nM.

The next experiment deals with MUC5AC mucin formation in IL-13-stimulated hTEC.
Assay: not given
Conditions: not given
Regarding `O=c1ncn2nc(Sc3ccc(F)cc3F)ccc2c1-c1c(Cl)cccc1Cl` [Compound 401, VX-745, reference compound], the MUC5AC production entry is “no significant inhibition”.
Still for that read-out and setting: under `CCOC(=O)Nc1cc(CCc2cnc(NC(=O)Nc3cc(C(C)(C)C)n[nH]3)s2)ccn1` [Compound 354, [4-(2-{2-[3-(5-tert-Butyl-2H-pyrazol-3-yl)-ureido]-thiazol-5-yl}-ethyl)-pyridin-2-yl]-carbamic acid ethyl ester] stands “marked attenuation”.
The same measure, in the same setting: under `CC(=O)Nc1cc(Oc2ccc(NC(=O)Nc3cc(C4CC4)ccc3F)c(F)c2)ccn1` [Compound 397, N-(4-{4-[3-(5-Cyclopropyl-2-fluoro-pheny)-ureido]-3-fluoro-phenoxy}-pyridin-2-yl)-actamde] stands “marked attenuation”; under `CC(=O)Nc1cc(CCc2cnc(NC(=O)Nc3cc(C4CC4)ccc3F)s2)ccn1` [Compound 398, N-[4-(2-{2-[3-(5-Cyclopropyl-2-fluoro-phenyl)-ureido]-thiazol-5-yl}-ethyl)-pyridin-2-yl]-acetamide], “marked attenuation”.

A further experiment deals with T1, MAPK13. In words: biochemical.
Conditions: not given
For the compound `CC(C)(C)c1cc(NC(=O)Nc2ncc(CCc3ccncc3)s2)no1` [Compound 387, 1-(5-tert-Butyl-isoxazol-3-yl)-3-[5-(2-pyridin-4-yl-ethyl)-thiazol-2-yl]-urea], the IC50 lay within 250 to 1000 nM.
On the same count and under the same terms, to `CC(C)(C)c1cc(NC(=O)Nc2ncc(CCc3ccnc(N)c3)s2)no1` [Compound 365, 1-{5-[2-(2-Amine-pyridin-4-yl)-ethyl]-thiazol-2-yl}-3-(5-tert-butyl-isoxazol-3-yl)-urea] belongs 250 to 1000 nM; to `CC(C)(C)c1cc(NC(=O)Nc2ncc(CCc3ccncc3)s2)on1` [Compound 386, 1-(3-tert-Butyl-isoxazol-5-yl)-3-[5-(2-pyridin-4-yl-ethyl)-thiazol-2-yl]-urea], 250 to 1000 nM.
In turn, `CC(=O)Nc1cc(COc2ccc(NC(=O)Nc3cc([Si](C)(C)C)ccc3F)c(F)c2)ccn1` [Compound 405, N-(4-{3-fluoro-4-[3-(2-fluoro-trimethylsilanyl-phenyl)-ureido]-phenoxymethyl}-pyridin-2-yl)-acetamide] showed an IC50 of 250 to 1000 nM.
Take `Cc1ccc(-n2nc(C(C)(C)CO)cc2NC(=O)Nc2ccc(Oc3ccncc3)cc2)cc1` [Compound 280, 1-[5-(2-Hydroxy-1,1-dimethyl-ethyl)-2-p-tolyl-2H-pyrazol-3-yl]-3-[4-(pyridin-4-yloxy)-phenyl]-urea]: the IC50 is 250 to 1000 nM.
For `Cn1nc(C(C)(C)C)cc1NC(=O)Nc1ccc(CCc2ccnc(NC(=O)C3CC3)c2)cc1F` [Compound 373, Cyclopropanecarboxylic acid [4-(2-{4-[3-(5-tert-butyl-2-methyl-2H-pyrazol-3-yl)-ureido]-3-fluoro-phenyl}-ethyl)-pyridin-2-yl]-amide], the IC50 fell in the range of 250 to 1000 nM.
Turning to `Cc1ccc(-n2nc(C3(C)COC3)cc2NC(=O)Nc2ncc(CCc3ccncc3)s2)cc1` [Compound 271], the IC50 was in the range of 250 to 1000 nM.
On the same count and under the same terms, to `Cc1ccc(-n2nc(C(C)(C)CO)cc2NC(=O)Nc2ccc(Oc3ccncc3)cc2F)cc1` [Compound 279, 1-[2-Fluoro-4-(pyridin-4-yloxy)-phenyl]-3-[5-(2-hydroxy-1,1-dimethyl-ethyl)-2-p-tolyl-2H-pyrazol-3-yl]-urea] belongs 250 to 1000 nM; to `Cc1ccc(-n2nc(C(C)(C)C)cc2NC(=O)Nc2ncc(CCc3ccncc3)s2)cc1` [Compound 270, 1-(5-tert-Butyl-2-p-tolyl-2H-pyrazol-3-yl)-3-[5-(2-pyridin-4-yl-ethyl)-thiazol-2-yl]-urea], 250 to 1000 nM.
As for `COCC(=O)Nc1cc(Oc2ccc(NC(=O)Nc3cc(C4(C)COC4)nn3-c3ccc(C)cc3)c(F)c2)ccn1` [Compound 267, N-[4-[3-fluoro-4-[[5-(3-methyloxetan-3-yl)-2-(p-tolyl)pyrazol-3-yl]carbamoylamino]phenoxy]-2-pyridyl]-2-methoxy-acetamide], the IC50 is less than 250 nM.
Compound `COC(=O)Nc1cc(CCc2ccc(NC(=O)Nc3cc(C(C)(C)C)nn3CC3CC3)c(F)c2)ccn1` [Compound 316, [4-(2-{4-[3-(5-tet-Butyl-2-cyclopropylmethyl-2H-pyrazol-3-yl)-ureido]-3-fluoro-phenyl}-ethyl)-pyridin-2-yl]-carbamic acid methyl ester] had an IC50 of 250 to 1000 nM.
The compound `CC(C)(C)c1cc(NC(=O)Nc2ncc(CCc3ccnc(N)c3)s2)[nH]n1` [Compound 367, 1-{5-[2-(2-Ainino-pyridin-4-yl)-ethyl]-thiazol-2-yl}-3-(5-tert-butyl-2H-pyrazol-3-yl)-urea] yielded an IC50 of 250 to 1000 nM.
The same measure, in the same setting: to `CC(=O)Nc1cc(COc2ccc(NC(=O)Nc3cc(C(C)(C)C)nn3CC3CC3)c(F)c2)ccn1` [Compound 413, N-(4-{4-[3-(5-tert-Butyl-2-cyclopropylmethyl-2H-pyrazol-3-yl)-ureido]-3-fluoro-phenoxymethyl}-pyridin-2-yl)-acetamide] belongs 250 to 1000 nM.
Same read-out and setting: to `CC(=O)Nc1cc(Oc2ccc(NC(=O)Nc3cc(C(C)(C)C)nn3CC3CC3)c(F)c2)ccn1` [Compound 393, N-(4-{4-[3-(5-tert-Butyl-2-cyclopropylmethyl-2H-pyrazol-3-yl)-ureido]-3-fluoro-phenoxy}-pyridin-2-yl)-acetamide] belongs less than 250 nM; to `Cc1ccc(-n2nc(C(C)(C)C)cc2NC(=O)Nc2ncc(CCc3ccnc(NC(=O)OCc4ccccc4)c3)s2)cc1` [Compound 277, [4-(2-{2-[3-(5-tert-Butyl-2-p-tolyl-2H-pyrazol-3-yl)-ureido]-thiazol-5-yl}-ethyl)-pyridin-2-yl]-carbamic acid benzyl ester], 250 to 1000 nM.
